Laboratory results from patent US10405547B2, “Substituted cyclic amides as herbicides” (FMC Corporation, priority 2015, dated 2019).

Tests used:
Type in all cases: in vivo
[1] = tested on: barnyardgrass (Echinochloa crus-galli); assay: Test A preemergence, barnyardgrass; conditions: 0 to 100 scale (0 no effect, 100 complete control)
Procedure, shortened: (§1)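 Greenhouse test: compounds in solvent with surfactant sprayed onto loam–sand soil after planting (preemergence) or onto plants 2-10 cm at the one- to two-leaf stage (postemergence). Injury visually rated versus untreated controls after about 10 days on a 0-100 scale (100 = complete control).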

kochia (Kochia scoparia) [2] = assay: Test A preemergence, kochia; conditions: 0 to 100 scale (0 no effect, 100 complete control)
Procedure, shortened: as §1

[3] = tested on: ragweed (common ragweed, Ambrosia elatior); assay: Test A preemergence, ragweed; conditions: 0 to 100 scale (0 no effect, 100 complete control)
Procedure, shortened: as §1

[4] = tested on: ryegrass, Italian (Lolium multiflorum); assay: Test A preemergence, Italian ryegrass; conditions: 0 to 100 scale (0 no effect, 100 complete control)
Procedure, shortened: as §1

[5] = tested on: foxtail, giant (Setaria faberii); assay: Test A preemergence, giant foxtail; conditions: 0 to 100 scale (0 no effect, 100 complete control)
Procedure, shortened: as §1

[6] = tested on: pigweed (Amaranthus retroflexus); assay: Test A preemergence, pigweed; conditions: 0 to 100 scale (0 no effect, 100 complete control)
Procedure, shortened: as §1

[7] = tested on: barnyardgrass (Echinochloa crus-galli); assay: Test A postemergence, barnyardgrass; conditions: visual injury, 0 to 100 scale (0 no effect, 100 complete control), approximately 10 days
Procedure, shortened: as §1

kochia (Kochia scoparia) [8] = assay: Test A postemergence, kochia; conditions: visual injury, 0 to 100 scale (0 no effect, 100 complete control), approximately 10 days
Procedure, shortened: as §1

[9] = tested on: ragweed (common ragweed, Ambrosia elatior); assay: Test A postemergence, ragweed; conditions: visual injury, 0 to 100 scale (0 no effect, 100 complete control), approximately 10 days
Procedure, shortened: as §1

[10] = tested on: ryegrass, Italian (Lolium multiflorum); assay: Test A postemergence, Italian ryegrass; conditions: visual injury, 0 to 100 scale (0 no effect, 100 complete control), approximately 10 days
Procedure, shortened: as §1

[11] = tested on: foxtail, giant (Setaria faberii); assay: Test A postemergence, giant foxtail; conditions: visual injury, 0 to 100 scale (0 no effect, 100 complete control), approximately 10 days
Procedure, shortened: as §1

[12] = tested on: pigweed (Amaranthus retroflexus); assay: Test A postemergence, pigweed; conditions: visual injury, 0 to 100 scale (0 no effect, 100 complete control), approximately 10 days
Procedure, shortened: as §1

[13] = tested on: blackgrass (Alopecurus myosuroides); assay: Test A postemergence, blackgrass; conditions: visual injury, 0 to 100 scale (0 no effect, 100 complete control), approximately 10 days
Procedure, shortened: as §1

[14] = tested on: galium (catchweed bedstraw, Galium aparine); assay: Test A postemergence, galium; conditions: visual injury, 0 to 100 scale (0 no effect, 100 complete control), approximately 10 days
Procedure, shortened: as §1

[15] = tested on: wheat (Triticum aestivum); assay: Test A postemergence, wheat; conditions: visual injury, 0 to 100 scale (0 no effect, 100 complete control), approximately 10 days
Procedure, shortened: as §1

corn (Zea mays) = assay: Test A postemergence, corn; conditions: visual injury, 0 to 100 scale (0 no effect, 100 complete control), approximately 10 days
Procedure, shortened: as §1

rice (Oryza sativa) = assay: Test B flooded paddy test, rice; conditions: applied to paddy water, visual rating after 13 to 15 days, scale 0 (no effect) to 100 (complete control)
Procedure, shortened: (§2)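 Greenhouse pots flooded to 3 cm above soil at time of treatment received compound via the water, which stayed at that level.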

[16] = tested on: sedge, umbrella (small-flower umbrella sedge, Cyperus difformis); assay: Test B flooded paddy test, umbrella sedge; conditions: applied to paddy water, visual rating after 13 to 15 days, scale 0 (no effect) to 100 (complete control)
Procedure, shortened: as §2

[17] = tested on: ducksalad (Heteranthera limosa); assay: Test B flooded paddy test, ducksalad; conditions: applied to paddy water, visual rating after 13 to 15 days, scale 0 (no effect) to 100 (complete control)
Procedure, shortened: as §2

[18] = tested on: barnyardgrass (Echinochloa crus-galli); assay: Test B flooded paddy test, barnyardgrass; conditions: applied to paddy water, visual rating after 13 to 15 days, scale 0 (no effect) to 100 (complete control)
Procedure, shortened: as §2

SMILES	Plant response rating, Barnyardgrass ([1]; 125 g ai/ha)	Plant response rating, Barnyardgrass ([1]; 500 g ai/ha)	Plant response rating, Kochia (kochia (Kochia scoparia) [2]; 125 g ai/ha)	Plant response rating, Kochia (kochia (Kochia scoparia) [2]; 500 g ai/ha)	Plant response rating, Ragweed ([3]; 125 g ai/ha)	Plant response rating, Ragweed ([3]; 500 g ai/ha)	Plant response rating, Ryegrass, Italian ([4]; 125 g ai/ha)	Plant response rating, Ryegrass, Italian ([4]; 500 g ai/ha)	Plant response rating, Foxtail, Giant ([5]; 125 g ai/ha)	Plant response rating, Foxtail, Giant ([5]; 500 g ai/ha)	Plant response rating, Pigweed ([6]; 125 g ai/ha)	Plant response rating, Pigweed ([6]; 500 g ai/ha)	Plant response rating, Barnyardgrass ([7]; 125 g ai/ha)	Plant response rating, Barnyardgrass ([7]; 500 g ai/ha)	Plant response rating, Kochia (kochia (Kochia scoparia) [8]; 125 g ai/ha)	Plant response rating, Kochia (kochia (Kochia scoparia) [8]; 500 g ai/ha)	Plant response rating, Ragweed ([9]; 125 g ai/ha)	Plant response rating, Ragweed ([9]; 500 g ai/ha)	Plant response rating, Ryegrass, Italian ([10]; 125 g ai/ha)	Plant response rating, Ryegrass, Italian ([10]; 500 g ai/ha)	other results
O=C1NCC(c2ccccc2Cn2ccc(C(F)(F)F)n2)C1C(=O)Nc1ccccc1F (stereo not drawn) [Compound 59]	0	40	0	0	0	0	0	0	0	50	0	0	0	30	0	0	0	0	0	0	Plant response rating, Foxtail, Giant ([11]; 125 g ai/ha): 0; Plant response rating, Foxtail, Giant ([11]; 500 g ai/ha): 20; Plant response rating, Pigweed ([12]; 125 g ai/ha): 0; Plant response rating, Pigweed ([12]; 500 g ai/ha): 0; Plant response rating, Blackgrass ([13]; 125 g ai/ha): 0; Plant response rating, Blackgrass ([13]; 500 g ai/ha): 0; Plant response rating, Galium ([14]; 125 g ai/ha): 0; Plant response rating, Galium ([14]; 500 g ai/ha): 0; Plant response rating, Wheat ([15]; 125 g ai/ha): 0; Plant response rating, Wheat ([15]; 500 g ai/ha): 0; Plant response rating, Corn (corn (Zea mays); 125 g ai/ha): 0; Plant response rating, Corn (corn (Zea mays); 500 g ai/ha): 0; Plant response rating, Rice (Flood) (rice (Oryza sativa); 250 g ai/ha): 0; Plant response rating, Sedge, Umbrella (Flood) ([16]; 250 g ai/ha): 0; Plant response rating, Ducksalad (Flood) ([17]; 250 g ai/ha): 0; Plant response rating, Barnyardgrass (Flood) ([18]; 250 g ai/ha): 0
O=C1NCC(c2cccc(OCc3ccccc3)c2)C1C(=O)Nc1ccccc1F (stereo not drawn) [Compound 63]	0	0	0	0	0	0	0	0	0	0	0	0	0	0	0	0	0	0	0	0	Plant response rating, Foxtail, Giant ([11]; 125 g ai/ha): 0; Plant response rating, Foxtail, Giant ([11]; 500 g ai/ha): 0; Plant response rating, Pigweed ([12]; 125 g ai/ha): 0; Plant response rating, Pigweed ([12]; 500 g ai/ha): 0; Plant response rating, Blackgrass ([13]; 125 g ai/ha): 0; Plant response rating, Blackgrass ([13]; 500 g ai/ha): 0; Plant response rating, Galium ([14]; 125 g ai/ha): 0; Plant response rating, Galium ([14]; 500 g ai/ha): 0; Plant response rating, Wheat ([15]; 125 g ai/ha): 0; Plant response rating, Wheat ([15]; 500 g ai/ha): 0; Plant response rating, Corn (corn (Zea mays); 125 g ai/ha): 0; Plant response rating, Corn (corn (Zea mays); 500 g ai/ha): 0; Plant response rating, Rice (Flood) (rice (Oryza sativa); 500 g ai/ha): 0; Plant response rating, Sedge, Umbrella (Flood) ([16]; 500 g ai/ha): 0; Plant response rating, Ducksalad (Flood) ([17]; 500 g ai/ha): 35; Plant response rating, Barnyardgrass (Flood) ([18]; 500 g ai/ha): 0
CN1CC(c2cccc(OC(F)(F)C(F)OC(F)(F)F)c2)C(C(=O)Nc2ccccc2F)C1=O (stereo not drawn) [Compound 41]	20	90	30	60	20	70	20	60	80	90	70	90	50	50	20	60	0	0	0	20	Plant response rating, Foxtail, Giant ([11]; 125 g ai/ha): 50; Plant response rating, Foxtail, Giant ([11]; 500 g ai/ha): 70; Plant response rating, Pigweed ([12]; 125 g ai/ha): 40; Plant response rating, Pigweed ([12]; 500 g ai/ha): 80; Plant response rating, Blackgrass ([13]; 125 g ai/ha): 0; Plant response rating, Blackgrass ([13]; 500 g ai/ha): 30; Plant response rating, Galium ([14]; 125 g ai/ha): 40; Plant response rating, Galium ([14]; 500 g ai/ha): 60; Plant response rating, Wheat ([15]; 125 g ai/ha): 0; Plant response rating, Wheat ([15]; 500 g ai/ha): 40; Plant response rating, Corn (corn (Zea mays); 125 g ai/ha): 0; Plant response rating, Corn (corn (Zea mays); 500 g ai/ha): 40; Plant response rating, Rice (Flood) (rice (Oryza sativa); 250 g ai/ha): 20; Plant response rating, Sedge, Umbrella (Flood) ([16]; 250 g ai/ha): 0; Plant response rating, Ducksalad (Flood) ([17]; 250 g ai/ha): 100; Plant response rating, Barnyardgrass (Flood) ([18]; 250 g ai/ha): 0
